How the values were obtained:
[1] = test system: adenylyl cyclase subtype 8; assay: Biochemical screening test for AC8 inhibitors (cAMP assay in HEK293 cells expressing ACs); format: cell-based; conditions: 100 μM
Description: (§1) For AC8 expression vector pcDNA3-AC1 transfection, HEK293 cells were plated onto 60-mm-diameter dishes at a density of 1×10^6 per plate, grown overnight and transfected with pcDNA3-AC1 (0.8 μg DNA per plate) by Lipofectamine 2000 (Invitrogen). Stable transfected clones were selected in culture media containing 0.8 mg/ml G418 (Invitrogen, CA) and maintained in this media. For transient expression of other AC isoforms in HEK293 cells, HEK293 cells were plated in 96 well tissue culture dishes and transfected with plasmids for AC5, respectively, experiments were carried out at 48 h after transfection.
(§2) The HEK293 cells expressing ACs were harvested and lysed in 0.1 M HCl after different treatments. Direct cAMP measurements were performed using the direct cAMP enzyme immunoassay kit (Assay Designs, MI) and optical density values were measured at 405 nm by the microplate reader. Phosphodiesterase was inhibited by the addition of 1 mM 3-isobutyl-1 methylxanthine (Sigma, Mo.) to cultures.
The HEK293 cells were subcultured into 96-well plates in the absence of antibiotics and grown overnight and transfected with the pGL3-CRE-firefly luciferase and pGL3-CMV-Renilla luciferase constructs (0.25 μg DNA per well) by Lipofectamine 2000 reagent. The transfected cells were incubated overnight, and media were changed to DMEM containing 10% fetal bovine serum. After 48 h, the cells were treated with 10 μM forskolin, 10 μM A23187 and 2 mM CaCl2, or a combination of 10 μM forskolin, 10 μM A23187 and 2 mM CaCl2, in the absence or presence of each chemical tested at the concentration of 100 μM. At the end of 6 hours, incubation cells were harvested and luciferase activity was assayed by Dual-Luciferase Reporter Assay System (Promega). Relative light units were measured using a SIRIUS luminometer.
A set of biochemical screening tests were carried out to search for potential selective AC8 inhibitors. cAMP assay, gene-activation (pCREB) assay in AC8 expressed cell lines, as well as integrative physiological experiments were employed to screen for potential AC8 inhibitors. The effect of Compound A and B on AC8 was determined.

wild-type mice = assay: Open field test, animal model of behavioral anxiety; format: in vivo; parameters: anti-anxiety effects in the open field test: dose or concentration left out as unconfirmed
Description: Animals were placed in the open field immediately after an IP injection. […] B) Mice injected with AC8 inhibitor (filled circles) traveled more than control mice injected with saline (open circles). *P<0.05
A round, green, plastic tub with diameter 43.5 cm was used to create an open arena for the mouse to travel. The floor was made of clear Plexiglas. Each trial consisted of exposing the mouse to a bright light (685 lux) in the arena for the first minute, followed immediately by exposing the mouse only to dim light (1 lux) for another minute. The mouse's movements were captured using video camera tracking software (Ethovision, Noldus Va.) and the distance from the border of the arena, the distance from the centre of the arena, and the total distance traveled were measured. The percent difference in these factors between bright and dim light periods were also calculated. After each 2 min testing session, the mouse was removed and placed back in its home cage and the arena was cleaned with 70% ethanol solution.

[2] = target: T1, adenylyl cyclase subtype 5 (Homo sapiens, UniProt O95622); assay: Biochemical screening test, AC5 transiently expressed in HEK293 cells; format: cell-based; conditions: read-out: Percent Inhibition AC5
T1 construct: expressed in transfected cells; host or cells: HEK293 (transient, 48 h)
Description: as §1, §2
The HEK293 cells were subcultured into 96-well plates in the absence of antibiotics and grown overnight and transfected with the pGL3-CRE-firefly luciferase and pGL3-CMV-Renilla luciferase constructs (0.25 μg DNA per well) by Lipofectamine 2000 reagent. […] Relative light units were measured using a SIRIUS luminometer.

mice = assay: Behavioral itching test (scratching induced by intradermal compound 48/80); format: in vivo
Description: Data are presented as mean±SEM.
Mutant KO mice and littermate wild-type mice were used in the behaviour experiments. Mice were shaved at the back of the neck where intradermal injections of compound 48/80, which releases histamine from the mast cells, were then given.

T1 sequence (O95622 whole entry): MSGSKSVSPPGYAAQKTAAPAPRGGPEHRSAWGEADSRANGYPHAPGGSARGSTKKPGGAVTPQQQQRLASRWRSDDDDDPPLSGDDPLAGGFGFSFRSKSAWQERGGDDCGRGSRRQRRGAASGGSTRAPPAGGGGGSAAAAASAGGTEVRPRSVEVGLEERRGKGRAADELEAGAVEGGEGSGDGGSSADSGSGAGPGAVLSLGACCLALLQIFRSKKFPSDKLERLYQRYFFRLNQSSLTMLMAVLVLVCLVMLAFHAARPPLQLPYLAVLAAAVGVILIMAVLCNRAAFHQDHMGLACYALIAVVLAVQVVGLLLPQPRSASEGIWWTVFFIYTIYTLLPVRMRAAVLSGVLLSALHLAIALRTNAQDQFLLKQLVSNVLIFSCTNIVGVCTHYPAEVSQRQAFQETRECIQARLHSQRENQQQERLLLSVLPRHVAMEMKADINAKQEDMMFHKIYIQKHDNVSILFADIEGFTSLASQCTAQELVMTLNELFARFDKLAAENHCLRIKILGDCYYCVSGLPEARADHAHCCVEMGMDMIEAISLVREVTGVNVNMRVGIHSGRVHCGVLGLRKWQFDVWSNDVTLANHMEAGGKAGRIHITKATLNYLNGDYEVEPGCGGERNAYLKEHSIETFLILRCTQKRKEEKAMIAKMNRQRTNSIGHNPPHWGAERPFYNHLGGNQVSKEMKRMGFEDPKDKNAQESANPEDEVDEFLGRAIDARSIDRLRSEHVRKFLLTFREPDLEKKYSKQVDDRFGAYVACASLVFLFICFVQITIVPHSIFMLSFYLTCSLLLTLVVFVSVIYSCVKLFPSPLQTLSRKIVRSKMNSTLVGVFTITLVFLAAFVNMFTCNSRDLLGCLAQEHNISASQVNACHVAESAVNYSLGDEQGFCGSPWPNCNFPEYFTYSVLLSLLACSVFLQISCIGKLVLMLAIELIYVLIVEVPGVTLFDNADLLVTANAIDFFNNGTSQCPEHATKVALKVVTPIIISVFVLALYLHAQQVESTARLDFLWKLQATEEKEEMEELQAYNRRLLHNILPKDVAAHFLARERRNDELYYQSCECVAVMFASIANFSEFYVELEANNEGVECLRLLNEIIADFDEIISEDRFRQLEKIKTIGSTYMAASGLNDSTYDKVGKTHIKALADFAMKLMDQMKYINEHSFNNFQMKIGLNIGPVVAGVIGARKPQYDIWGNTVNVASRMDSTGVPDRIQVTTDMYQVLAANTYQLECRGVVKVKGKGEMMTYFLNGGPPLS

Cc1ccc(OCCn2c(S)nc3c(N)ncnc32)cc1 [Compound A, 6-amino-9-(2-p-tolyloxy-ethyl)-9H-purine-8-thiol] was tested, and the “Percent Inhibition AC8” value [1] was 88 ± 2% inhibition, the “inhibition of AC8 activity” value [1] was “significant inhibition” and the “ambulatory counts in open field” value (wild-type mice; 5 mg/kg, i.p., placed in open field immediately after injection, vs saline, n=6, P<0.05) was “significantly more ambulatory counts”. For the same compound, the “distance traveled in open field” value (wild-type mice; 5 mg/kg, i.p., vs saline, P<0.05) was “traveled more”, the “anti-anxiety effects in the open field test” value (wild-type mice; systemic injection, n=7 mice) was “significant anti-anxiety effects” and the inhibition at 100 µM [2] was 25 ± 4%. The “total scratching responses induced by intradermal compound 48/80 (100 μg/50 μl)” value (mice; 5 mg/kg i.p., n=6 mice vs wild-type mice n=7, P<0.05) was “significantly reduced” and the “anti-itching effects in the itching test” value (mice; systemic injection 5 mg/kg) was “significant anti-itching effects”.
With c1nc(N2CCOCC2)c2nc[nH]c2n1 [Compound B, 4-(9H-purin-6-yl)morpholine] the “Percent Inhibition AC8” value [1] was 86 ± 2% and the “inhibition of AC8 activity” value [1] was “significant inhibition”.

Reference: US20110098295A1, “METHODS OF TREATING ANXIETY, ITCHING AND PSYCHIATRIC DISORDERS” (priority 2009, published 2011)
